The values that follow come from the Kinase Knowledgebase extract (Sharma et al. 2016).

For this test, the target named is EGFR (human) (UniProt P00533).
Sequence of EGFR (human) (P00533 whole entry, looked up): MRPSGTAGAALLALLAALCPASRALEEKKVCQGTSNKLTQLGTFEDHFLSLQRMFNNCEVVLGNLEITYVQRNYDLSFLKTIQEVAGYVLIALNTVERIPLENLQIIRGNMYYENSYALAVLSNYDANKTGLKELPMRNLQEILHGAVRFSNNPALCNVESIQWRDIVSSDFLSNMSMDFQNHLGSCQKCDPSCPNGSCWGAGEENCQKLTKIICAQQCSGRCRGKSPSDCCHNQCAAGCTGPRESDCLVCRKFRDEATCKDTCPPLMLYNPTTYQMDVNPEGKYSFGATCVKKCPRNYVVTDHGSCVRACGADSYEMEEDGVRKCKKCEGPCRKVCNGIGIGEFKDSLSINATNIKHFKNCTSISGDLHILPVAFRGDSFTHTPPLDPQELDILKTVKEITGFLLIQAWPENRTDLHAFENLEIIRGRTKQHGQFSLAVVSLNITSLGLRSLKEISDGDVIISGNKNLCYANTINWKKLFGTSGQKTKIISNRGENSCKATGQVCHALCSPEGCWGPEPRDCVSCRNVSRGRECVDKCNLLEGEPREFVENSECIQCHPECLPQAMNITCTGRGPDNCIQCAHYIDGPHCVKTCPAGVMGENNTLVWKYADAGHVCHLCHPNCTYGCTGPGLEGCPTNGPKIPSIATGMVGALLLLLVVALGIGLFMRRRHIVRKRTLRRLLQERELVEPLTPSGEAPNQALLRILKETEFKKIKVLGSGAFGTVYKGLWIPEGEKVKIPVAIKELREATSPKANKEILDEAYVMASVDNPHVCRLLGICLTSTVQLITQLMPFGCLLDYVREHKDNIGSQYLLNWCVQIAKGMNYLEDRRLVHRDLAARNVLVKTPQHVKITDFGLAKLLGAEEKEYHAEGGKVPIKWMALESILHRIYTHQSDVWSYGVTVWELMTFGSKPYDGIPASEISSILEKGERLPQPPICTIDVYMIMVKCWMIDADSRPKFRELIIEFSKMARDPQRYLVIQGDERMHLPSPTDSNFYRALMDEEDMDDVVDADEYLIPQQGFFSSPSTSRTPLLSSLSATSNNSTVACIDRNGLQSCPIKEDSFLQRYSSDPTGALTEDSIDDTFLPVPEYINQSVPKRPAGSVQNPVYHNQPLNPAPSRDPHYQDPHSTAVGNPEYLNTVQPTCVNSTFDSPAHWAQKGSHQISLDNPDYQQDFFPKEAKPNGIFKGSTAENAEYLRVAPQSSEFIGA

Regarding `Brc1ccc2[nH]c3nccc(NCc4ccccc4)c3c2c1`, the Ki (as a rule, the dissociation constant of the complex between target and ligand, obtained from inhibition or displacement) worked out at 0.043 µM.
The compound `Clc1cccc(CNc2ccnc3[nH]c4ccccc4c23)c1` yielded a Ki of 0.099 µM.
As for `c1ccc(CCNc2ccnc3[nH]c4ccccc4c23)cc1`, the Ki came to 1.04 µM.
In turn, `Clc1ccc(CNc2ccnc3[nH]c4ccccc4c23)cc1` returned a Ki of 1.04 µM.
Regarding `c1ccc2c(CNc3ccnc4[nH]c5ccccc5c34)cccc2c1`, the Ki was found to be 0.36 µM.
`c1cncc(CNc2ccnc3[nH]c4ccccc4c23)c1` displayed a Ki of 3.83 µM.
`C[C@@H](Nc1ccnc2[nH]c3ccccc3c12)c1ccccc1` had a Ki of 0.84 µM.
`c1ccc(CNc2ccnc3[nH]c4ccccc4c23)cc1` gave a Ki of 0.085 µM.
In turn, `COc1ccc(CNc2ccnc3[nH]c4ccccc4c23)cc1` returned an inhibition constant (Ki) of 0.45 µM.
For `C[C@H](Nc1ccnc2[nH]c3ccccc3c12)c1ccccc1`, the Ki was 0.03 µM.
